# Earlier results as cited in patent publication US20130164335A1, “METHODS AND COMPOSITIONS FOR CELLULAR DRUG RELEASE” (NATIONAL HEALTH RESEARCH INSTITUTES, priority 2011, published 2013).
# Details: after the first dosage; from a report
structure (smiles),measurement,value
"Cc1cc2c(s1)Nc1ccccc1N=C2N1CCN(C)CC1 [OLZ, Olanzapine]",time to reach steady-state,one week
